Results on 3 compounds are retold here after patent publication US20200399242A1, “NOVEL COMPOUNDS” (INFLAZOME LIMITED, priority 2018, published 2020).

Counter-ions that a name gives are not always drawn.

The target of the assay is T1, NLRP3 (Homo sapiens, UniProt Q96P20).
T1 construct: Seed THP-1 cells (25,000 cells/well) containing 1.0 μg/ml LPS in 40 μl of RPMI medium; host or cells: THP-1 cells
The experiment in a line: THP-1 cells pyroptosis assay (LPS-primed, nigericin-triggered, resazurin read-out). The class given is cell-based. The settings on record: 1 μg/ml LPS, compound 3 hrs, nigericin 5 μM 1 hr, resazurin viability. As for the experimental part: THP-1 cells (ATCC #TIB-202) were grown in RPMI containing L-glutamine (Gibco #11835) supplemented with 1 mM sodium pyruvate (Sigma #S8636) and penicillin (100 units/ml)/streptomycin (0.1 mg/ml) (Sigma #P4333) in 10% Fetal Bovine Serum (FBS) (Sigma #F0804). The cells were routinely passaged and grown to confluency (˜10^6 cells/ml). On the day of the experiment, THP-1 cells were harvested and resuspended into RPMI medium (without FBS). The cells were then counted and viability (>90%) checked by Trypan blue (Sigma #T8154). Appropriate dilutions were made to give a concentration of 625,000 cells/ml. To this diluted cell solution was added LPS (Sigma #L4524) to give a 1 μg/ml Final Assay Concentration (FAC). 40 μl of the final preparation was aliquoted into each well of a 96-well plate. The plate thus prepared was used for compound screening. The following method step-by-step assay was followed for compound screening. • 1. Seed THP-1 cells (25,000 cells/well) containing 1.0 μg/ml LPS in 40 μl of RPMI medium (without FBS) in 96-well, black walled, clear bottom cell culture plates coated with poly-D-lysine (VWR #734-0317) • 2. Add 5 μl compound (8 points half-log dilution, with 10 μM top dose) or vehicle (DMSO 0.1% FAC) to the appropriate wells • 3. Incubate for 3 hrs at 37° C., 5% CO2 • 4. Add 5 μl nigericin (Sigma #N7143) (FAC 5 μM) to all wells • 5. Incubate for 1 hr at 37° C., 5% CO2 • 6. At the end of the incubation period, spin plates at 300×g for 3 mins and remove supernatant • 7. Then add 50 μl of resazurin (Sigma #R7017) (FAC 100 μM resazurin in RPMI medium without FBS) and incubate plates for a further 1-2 hrs at 37° C. and 5% CO2 • 8. Plates were read in an Envision reader at Ex 560 nm and Em 590 nm • 9. IC50 data is fitted to a non-linear regression equation (log inhibitor vs response-variable slope 4-parameters) The results of the pyroptosis assay are summarised in Table 1 below as THP IC50.
For orientation: Resazurin is reduced to fluorescent resorufin, in cell work by metabolically active cells.

T1 sequence (Q96P20 whole entry): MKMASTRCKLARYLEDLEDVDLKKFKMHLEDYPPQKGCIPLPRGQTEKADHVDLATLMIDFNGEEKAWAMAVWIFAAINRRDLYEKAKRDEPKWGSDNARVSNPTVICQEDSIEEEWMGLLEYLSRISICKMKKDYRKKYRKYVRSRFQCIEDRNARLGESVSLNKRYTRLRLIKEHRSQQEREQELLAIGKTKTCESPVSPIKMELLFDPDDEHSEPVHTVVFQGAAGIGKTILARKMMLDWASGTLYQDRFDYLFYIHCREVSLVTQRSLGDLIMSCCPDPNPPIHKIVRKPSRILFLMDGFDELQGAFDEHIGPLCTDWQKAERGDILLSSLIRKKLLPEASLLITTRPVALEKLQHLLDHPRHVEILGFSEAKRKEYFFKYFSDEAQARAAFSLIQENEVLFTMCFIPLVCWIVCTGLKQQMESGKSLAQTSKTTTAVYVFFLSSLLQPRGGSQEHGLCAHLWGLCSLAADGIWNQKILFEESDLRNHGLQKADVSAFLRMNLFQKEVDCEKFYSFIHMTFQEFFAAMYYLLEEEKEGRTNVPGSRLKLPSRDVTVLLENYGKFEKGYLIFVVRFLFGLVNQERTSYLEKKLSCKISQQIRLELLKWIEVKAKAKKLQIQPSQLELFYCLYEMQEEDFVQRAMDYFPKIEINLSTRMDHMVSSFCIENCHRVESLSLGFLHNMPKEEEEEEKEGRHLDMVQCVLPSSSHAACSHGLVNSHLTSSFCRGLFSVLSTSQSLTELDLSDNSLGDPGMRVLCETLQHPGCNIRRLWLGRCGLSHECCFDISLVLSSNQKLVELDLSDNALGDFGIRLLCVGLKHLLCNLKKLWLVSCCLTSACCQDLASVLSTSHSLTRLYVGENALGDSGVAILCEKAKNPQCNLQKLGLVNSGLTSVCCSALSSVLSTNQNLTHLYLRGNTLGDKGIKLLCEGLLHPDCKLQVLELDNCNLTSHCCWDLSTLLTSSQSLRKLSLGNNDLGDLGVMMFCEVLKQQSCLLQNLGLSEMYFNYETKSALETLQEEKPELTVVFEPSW

With `COc1cc(-c2cc(F)cc(C(C)C)c2CC(=O)NS(=O)(=O)c2ccc(=O)n(C)c2)ccn1` [Example 1, 2-(4-Fluoro-2-isopropyl-6-(2-methoxypyridin-4-yl)phenyl)-N-((1-methyl-6-oxo-,6-dihydropyridin-3-yl)sulfonyl)acetamide, potassium salt], the IC50 (usually the concentration that inhibits the measured activity by half) lay within 5 to 10 µM.
To `COc1cc(-c2cc(F)cc(C(C)C)c2CC(=O)NS(=O)(=O)c2ccc(=O)n(C(C)C)c2)ccn1` [Example 2, 2-(4-Fluoro-2-isopropyl-6-(2-methoxypyridin-4-yl)phenyl)-N-((1-isopropyl-6-oxo-1,6-dihydropyridin-3-yl)sulfonyl)acetamide, potassium salt] belongs 1 to 5 µM.
To `COc1cc(-c2cc(F)cc(C(C)C)c2CC(=O)NS(=O)(=O)c2cn(C)c(=O)n(C)c2=O)ccn1` [Example 3, N-((1,3-Dimethyl-2,4-dioxo-1,2,3,4-tetrahydropyrimidin-5-yl)sulfonyl)-2-(4-fluoro-2-isopropyl-6-(2-methoxypyridin-4-yl)phenyl) acetamide] belongs not above 1 µM.
